Data: ChEMBL document CHEMBL4742385 (2019)

Assays:
[1] = tested on: RPMI-8226; test: Antiproliferative activity against human RPMI-8226 assessed as inhibition of cell growth at 1 uM after 8 days measured after Celltiter-Glo assay relative to control; type: functional; settings: Homo sapiens, RPMI-8226, 192 h, time 8 day
[2] = biological target: Cyclin-C/Cyclin-dependent kinase 19 (Homo sapiens) (UniProt Q9BWU1+P24863); test: Inhibition of humanGST-tagged CDK19/Cyc C expressed in Sf21 cells at 1 uM measured after 1 hr by fluorescence plate reader relative to control
[3] = biological target: CDK8/Cyclin C (Homo sapiens) (UniProt P49336+P24863); test: Inhibition of human CDK8/Cyc C expressed in Sf21 cells at 1 uM measured after 1 hr by fluorescence plate reader relative to control
[4] = tested on: SW480; test: Antitumor activity against human SW480 cells xenografted in BALB/c nude mouse assessed as inhibition of tumor growth at 50 mg/kg, po administered once daily measured after 14 days relative to control; type: functional; settings: time 14 day

SMILES | inhibition at 1 µM [1] | inhibition [2] | inhibition [3] | T/C [4]
Cn1cc(-c2ccncc2/C=C/C(=O)Nc2ccc3c(c2)CN(CC(F)(F)F)CC3)cn1 | 59% | 100% | 102% | 43%
O=C(/C=C/c1cnccc1-c1cnn(C2CC2)c1)Nc1ccc(CN2CC(F)(F)C2)cc1 | 58% | – | – | 51%
O=C(/C=C/c1cncc(F)c1-c1cnn(C2CC2)c1)Nc1ccc(CN2CCOCC2)cc1F | 64% | 96% | 101% | 36%
O=C(/C=C/c1cncc(F)c1-c1cnn(C2CC2)c1)Nc1ccc2c(c1)CN(CC(F)(F)F)C2 | 58% | 100% | 104% | 29%
O=C(/C=C/c1cnccc1-c1cnn(C2CC2)c1)Nc1ccc(CN2CCOCC2)cc1F | 53% | 99% | 99% | 36%
Cn1cc(-c2c(F)cncc2/C=C/C(=O)Nc2ccc(CN3CC(F)(F)C3)cc2)cn1 | 65% | 102% | 103% | 36%
Cn1cc(-c2ccncc2/C=C/C(=O)Nc2ccc3c(c2)CN(CC(F)(F)F)C3)cn1 | 64% | 102% | 98% | 31%
Cn1cc(-c2ccncc2/C=C/C(=O)Nc2ccc(CN3CCOCC3)c(C#N)c2)cn1 | 54% | 99% | 100% | –
Cn1cnc2ccc(-c3c(F)cncc3/C=C/C(=O)Nc3ccc4c(c3)CN(CC(F)(F)F)C4)cc21 | 69% | 96% | 101% | –
COc1ccc(-c2ccncc2/C=C/C(=O)Nc2ccc(CN3CCOCC3)cc2)s1 | 58% | 96% | 93% | –
O=C(/C=C/c1cnccc1-c1cnn(C2CC2)c1)Nc1ccc2c(ccn2CC(F)(F)F)c1 | 57% | 98% | 99% | –
O=C(/C=C/c1cnccc1-c1cnn(Cc2ccccc2)c1)Nc1ccc(CN2CCOCC2)cc1 | 63% | 101% | 101% | –
Cn1ccc2cc(NC(=O)/C=C/c3cnccc3-c3cnn(C4CC4)c3)ccc21 | 61% | 97% | 100% | –
COc1ncc(-c2ccncc2/C=C/C(=O)Nc2ccc(CN3CCOCC3)cc2F)s1 | 63% | 96% | 99% | –
Cn1cc(-c2ccncc2/C=C/C(=O)Nc2cccc(-c3cccnc3)c2)cn1 | 58% | 78% | 84% | –
O=C(/C=C/c1cnccc1-c1cnn(C2CC2)c1)Nc1ccc(CN2CCOCC2)cc1 | 53% | 102% | 92% | 37%
